{"source": "patent US9486405B2", "about": "“Methods for the treatment of pediatric otic disorders” (Otonomy, Inc., priority 2013, dated 2016)", "key": {"[1]": {"system": "inner and outer hair cells", "experiment": "Inner ear cytocochleogram, one-month acute ototoxicity study", "format": "in vivo, guinea pig", "conditions": "at termination; 2% and 6% single IT-ANT; drops twice daily for 7 days; gentamicin single IT-ANT", "method": "(§1) At termination, functional and anatomic assessments of the middle and inner ear compartments were conducted.\nInner ear cytocochleogram—The left ear cochleae were carefully removed from the temporal bones and then further dissected, first removing the bony otic capsule, followed by removal of lateral wall tissues, including spiral ligament and stria vascularis. The tectorial membrane was then removed and the cochleae placed in a solution of rhodamine labeled phalloidin, diluted 1:100 in phosphate buffered saline (PBS), for 30-120 min, in the dark, followed by two washes in PBS. The cochlear sensory neural epithelium was then dissected away from the modiolus, starting at the apex, to produce surface preparations of the cochlear spiral. Each segment was mapped for location and placed on a slide. A quantitative assessment of presence or absence of hair cells was then carried out, beginning at apex and proceeding to the base, to produce a cytocochleogram, with presence or absence or hair cells mapped by position along the cochlear spiral."}, "[2]": {"experiment": "Middle ear histology, one-month acute ototoxicity study", "format": "in vivo, guinea pig", "conditions": "at termination; Composition A 2% and 6% single IT-ANT; drops twice daily for 7 days; gentamicin single IT-ANT", "method": "as §1\nHistological analysis of middle ear paraffin sections was conducted at termination.\nMiddle ear histology—Guinea pigs received vascular perfusion through the heart with an isotonic saline solution followed by fixative containing 4% paraformaldehyde (PFA) in phosphate buffer. Left and right temporal bones were removed and trimmed. Left ear cochleae were designated for inner ear assessment and the right ear cochleae for middle ear histology. Cochleae of the left ear were fixed by intrascalar perfusion of 4% PFA. The temporal bones were then placed in 4% PFA for approximately 1 hour and transferred to a vial containing 0.5% PFA in phosphate buffer. The right temporal bones were trimmed, and then each was placed in a cassette containing 5% EDTA in phosphate buffer. The cassettes were placed into a PELCO 3451 Microwave System, running constantly for 3-5 days. Ears were then dehydrated in EtOH and processed in JB-4 Glycol Methacrylate resin, placed into molds containing the resin and polymerized at ˜4° C. for ˜12 h. Blocks containing temporal bones were trimmed and 5 μm sections were cut with a Leica RM2165 Microtome and stained with Paragon stain. Sections were examined under bright field optics. Middle ear sections were assessed for tissue reaction and inflammatory response. […]"}}}
{"substance": "gentamicin", "values": [{"measurement": "hair cell loss (cytocochleogram)", "setting": "[1]", "value": "profound to complete hair cell loss"}, {"measurement": "middle ear histology finding", "setting": "[2]", "value": "moderate chronic inflammation"}]}
